Measurements reported in patent US8957108B2, “Use of 5,6-dimethylxanthenone-4-acetic acid as an antiviral agent” (University of Maryland, Baltimore, priority 2006, dated 2015).

Legend:
[1] = test system: peritoneal macrophages; assay: Cytokine analysis of macrophage culture supernatants; type: cell-based, mouse; conditions: supernatants at 24 h
[2] = test system: Francisella tularensis LVS; type: cell-based; conditions: Ft LVS-infected macrophages
[3] = test system: IFN-β−/− macrophages
[4] = IFN-β-deficient cells, DMXAA 3 h vs unstimulated wild-type cells

Q: For `Cc1ccc2c(=O)c3cccc(CC(=O)O)c3oc2c1C` [DMXAA, 5,6-dimethylxanthenone-4-acetic acid], which “RANTES production in IRF-3−/− macrophages” value [1] is on record?
A: fail to produce RANTES

Q: And the “secretion of TNF-α in IRF-3-deficient macrophages” value [1]?
A: reduced to background levels

Q: What about the “time to reduce a bacterial burden compared with rIFN-β” value [2] of the same molecule?
A: took longer

Q: What about the “reduction of bacterial burden” value ([2]; 100 μg/ml, within 24 hr) of the same molecule?
A: 10 fold

Q: And the “CYP1A2 Fold Change: IFNβ−/−” value [3]?
A: 3.9 fold

Q: And the “CYP1B1 Fold Change: IFNβ−/−” value [3]?
A: 5.9 fold

Q: What about the “2310043N10RIK Fold Change: IFNβ−/−” value [3, 4] of the same molecule?
A: 2.2 fold

Q: And the “5830484A20RIK Fold Change: IFNβ−/−” value [3, 4]?
A: 4.0 fold

Q: What about the “ABCB1 Fold Change: IFNβ−/−” value [3, 4] of the same molecule?
A: 7.1 fold

Q: And the “ABL1 Fold Change: IFNβ−/−” value [3, 4]?
A: 1.5 fold

Q: And the “ABLIM1 Fold Change: IFNβ−/−” value [3, 4]?
A: 1.4 fold

Q: What about the “ACVR1B Fold Change: IFNβ−/−” value [3, 4] of the same molecule?
A: 2.3 fold

Q: And the “ADRB2 Fold Change: IFNβ−/−” value [3, 4]?
A: 1.7 fold

Q: And the “AFTIPHILIN Fold Change: IFNβ−/−” value [3, 4]?
A: 1.2 fold

Q: And the “AKAP12 Fold Change: IFNβ−/−” value [3, 4]?
A: 1.5 fold

Q: What about the “AMPD3 Fold Change: IFNβ−/−” value [3, 4] of the same molecule?
A: 2.7 fold

Q: What about the “AP2A2 Fold Change: IFNβ−/−” value [3, 4] of the same molecule?
A: 8.8 fold

Q: What about the “APBB1IP Fold Change: IFNβ−/−” value [3, 4] of the same molecule?
A: 1.8 fold

Q: What about the “APOBEC3F Fold Change: IFNβ−/−” value [3, 4] of the same molecule?
A: 1.4 fold

Q: And the “ARHGEF3 Fold Change: IFNβ−/−” value [3, 4]?
A: 2.1 fold

Q: What about the “ARID3A Fold Change: IFNβ−/−” value [3, 4] of the same molecule?
A: 2.5 fold

Q: And the “ARL4C Fold Change: IFNβ−/−” value [3, 4]?
A: 5.5 fold

Q: What about the “ASF1A Fold Change: IFNβ−/−” value [3, 4] of the same molecule?
A: 2.1 fold

Q: And the “ATRX Fold Change: IFNβ−/−” value [3, 4]?
A: 2.6 fold

Q: What about the “B3GAT3 Fold Change: IFNβ−/−” value [3, 4] of the same molecule?
A: 1.6 fold

Q: What about the “BACE1 Fold Change: IFNβ−/−” value [3, 4] of the same molecule?
A: 3.7 fold

Q: And the “BAMBI Fold Change: IFNβ−/−” value [3, 4]?
A: 1.5 fold

Q: What about the “BCL2 Fold Change: IFNβ−/−” value [3, 4] of the same molecule?
A: 1.4 fold

Q: What about the “BCL2L1 Fold Change: IFNβ−/−” value [3, 4] of the same molecule?
A: 2.3 fold

Q: What about the “BHLHB2 Fold Change: IFNβ−/−” value [3, 4] of the same molecule?
A: 1.3 fold

Q: And the “BID Fold Change: IFNβ−/−” value [3, 4]?
A: 2.9 fold

Q: What about the “C8ORF4 Fold Change: IFNβ−/−” value [3, 4] of the same molecule?
A: 4.1 fold

Q: And the “C9ORF26 Fold Change: IFNβ−/−” value [3, 4]?
A: 4.4 fold

Q: What about the “CCL2 Fold Change: IFNβ−/−” value [3, 4] of the same molecule?
A: 5.8 fold

Q: And the “CCL3 Fold Change: IFNβ−/−” value [3, 4]?
A: 1.4 fold

Q: What about the “CCL4 Fold Change: IFNβ−/−” value [3, 4] of the same molecule?
A: 8.1 fold

Q: What about the “CCL5 Fold Change: IFNβ−/−” value [3, 4] of the same molecule?
A: 3.7 fold

Q: And the “CCL7 Fold Change: IFNβ−/−” value [3, 4]?
A: 2.9 fold

Q: And the “CCL13 Fold Change: IFNβ−/−” value [3, 4]?
A: 5.8 fold

Q: What about the “CCND2 Fold Change: IFNβ−/−” value [3, 4] of the same molecule?
A: 2.0 fold

Q: And the “CCNE1 Fold Change: IFNβ−/−” value [3, 4]?
A: 2.9 fold

Q: What about the “CCNF Fold Change: IFNβ−/−” value [3, 4] of the same molecule?
A: 2.4 fold

Q: And the “CCRN4L Fold Change: IFNβ−/−” value [3, 4]?
A: 1.6 fold

Q: What about the “CD37 Fold Change: IFNβ−/−” value [3, 4] of the same molecule?
A: 1.1 fold

Q: What about the “CD40 Fold Change: IFNβ−/−” value [3, 4] of the same molecule?
A: 1.3 fold

Q: And the “CD86 Fold Change: IFNβ−/−” value [3, 4]?
A: 6.0 fold

Q: What about the “CD274 Fold Change: IFNβ−/−” value [3, 4] of the same molecule?
A: 1.0 fold

Q: What about the “CDC6 Fold Change: IFNβ−/−” value [3, 4] of the same molecule?
A: 3.2 fold

Q: What about the “CDC7 Fold Change: IFNβ−/−” value [3, 4] of the same molecule?
A: 1.6 fold

Q: What about the “CDC37L1 Fold Change: IFNβ−/−” value [3, 4] of the same molecule?
A: 2.2 fold

Q: And the “CDKN1A Fold Change: IFNβ−/−” value [3, 4]?
A: 1.1 fold

Q: What about the “CEBPB Fold Change: IFNβ−/−” value [3, 4] of the same molecule?
A: 1.9 fold

Q: And the “CITED2 Fold Change: IFNβ−/−” value [3, 4]?
A: 1.5 fold

Q: And the “CLCA1 Fold Change: IFNβ−/−” value [3, 4]?
A: 1.9 fold

Q: What about the “CNR2 Fold Change: IFNβ−/−” value [3, 4] of the same molecule?
A: 2.3 fold

Q: What about the “CREBBP Fold Change: IFNβ−/−” value [3, 4] of the same molecule?
A: 6.3 fold

Q: What about the “CXCL10 Fold Change: IFNβ−/−” value [3, 4] of the same molecule?
A: 21.2 fold

Q: And the “DAXX Fold Change: IFNβ−/−” value [3, 4]?
A: 1.6 fold

Q: And the “DSCR1 Fold Change: IFNβ−/−” value [3, 4]?
A: 2.7 fold

Q: And the “FGD6 Fold Change: IFNβ−/−” value [3, 4]?
A: 2.0 fold

Q: What about the “FGL2 Fold Change: IFNβ−/−” value [3, 4] of the same molecule?
A: 3.6 fold

Q: And the “GBP2 Fold Change: IFNβ−/−” value [3, 4]?
A: 1.6 fold

Q: What about the “GBP4 Fold Change: IFNβ−/−” value [3, 4] of the same molecule?
A: 4.6 fold

Q: What about the “GBP6 Fold Change: IFNβ−/−” value [3, 4] of the same molecule?
A: 6.8 fold

Q: What about the “GYPC Fold Change: IFNβ−/−” value [3, 4] of the same molecule?
A: 4.4 fold

Q: And the “IFI16 Fold Change: IFNβ−/−” value [3, 4]?
A: 2.7 fold

Q: What about the “IFI35 Fold Change: IFNβ−/−” value [3, 4] of the same molecule?
A: 1.1 fold

Q: And the “IFI203 Fold Change: IFNβ−/−” value [3, 4]?
A: 3.4 fold

Q: And the “IFI205 Fold Change: IFNβ−/−” value [3, 4]?
A: 1.8 fold

Q: And the “IFIH1 Fold Change: IFNβ−/−” value [3, 4]?
A: 7.0 fold

Q: And the “IFIT1 Fold Change: IFNβ−/−” value [3, 4]?
A: 22.2 fold
